Results published in patent US20080234262A1 (Wyeth, priority 2007, published 2008).

Key:
[1] = target: PI3K (Homo sapiens, UniProt P42336); assay: Fluorescence polarization assay for PI3K; type: biochemical; details: PI3Kα; read-out: PI3Kα IC50;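 also: PI3K kinase reaction on PIP2 with ATP, 30-60 min, product sensed by GST-GRP with red probe in fluorescence polarization (mP), controls without enzyme and at zero time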
[2] = test system: prostate line LNCap; assay: In vitro cell culture growth assay (MTS), LNCap; type: cell-based, human; details: Homo sapiens, LNCaP, 72 h, LNCap cells, three days after drug treatment;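 also: viable cell density read by absorbance at 490 nm, growth expressed as percent of vehicle-treated cells on the same plate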
[3] = test system: breast line MDA468; assay: In vitro cell culture growth assay (MTS), MDA468; type: cell-based, human; details: Homo sapiens, 72 h, MDA468 cells, three days after drug treatment
Outline: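 Growth measured as percent of same-plate vehicle control by MTS metabolic dye conversion (A490). Breast MDA468 and prostate LNCap cells, plated a day ahead, were exposed to compounds for 3 days.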

Sequence of PI3K (P42336 whole entry): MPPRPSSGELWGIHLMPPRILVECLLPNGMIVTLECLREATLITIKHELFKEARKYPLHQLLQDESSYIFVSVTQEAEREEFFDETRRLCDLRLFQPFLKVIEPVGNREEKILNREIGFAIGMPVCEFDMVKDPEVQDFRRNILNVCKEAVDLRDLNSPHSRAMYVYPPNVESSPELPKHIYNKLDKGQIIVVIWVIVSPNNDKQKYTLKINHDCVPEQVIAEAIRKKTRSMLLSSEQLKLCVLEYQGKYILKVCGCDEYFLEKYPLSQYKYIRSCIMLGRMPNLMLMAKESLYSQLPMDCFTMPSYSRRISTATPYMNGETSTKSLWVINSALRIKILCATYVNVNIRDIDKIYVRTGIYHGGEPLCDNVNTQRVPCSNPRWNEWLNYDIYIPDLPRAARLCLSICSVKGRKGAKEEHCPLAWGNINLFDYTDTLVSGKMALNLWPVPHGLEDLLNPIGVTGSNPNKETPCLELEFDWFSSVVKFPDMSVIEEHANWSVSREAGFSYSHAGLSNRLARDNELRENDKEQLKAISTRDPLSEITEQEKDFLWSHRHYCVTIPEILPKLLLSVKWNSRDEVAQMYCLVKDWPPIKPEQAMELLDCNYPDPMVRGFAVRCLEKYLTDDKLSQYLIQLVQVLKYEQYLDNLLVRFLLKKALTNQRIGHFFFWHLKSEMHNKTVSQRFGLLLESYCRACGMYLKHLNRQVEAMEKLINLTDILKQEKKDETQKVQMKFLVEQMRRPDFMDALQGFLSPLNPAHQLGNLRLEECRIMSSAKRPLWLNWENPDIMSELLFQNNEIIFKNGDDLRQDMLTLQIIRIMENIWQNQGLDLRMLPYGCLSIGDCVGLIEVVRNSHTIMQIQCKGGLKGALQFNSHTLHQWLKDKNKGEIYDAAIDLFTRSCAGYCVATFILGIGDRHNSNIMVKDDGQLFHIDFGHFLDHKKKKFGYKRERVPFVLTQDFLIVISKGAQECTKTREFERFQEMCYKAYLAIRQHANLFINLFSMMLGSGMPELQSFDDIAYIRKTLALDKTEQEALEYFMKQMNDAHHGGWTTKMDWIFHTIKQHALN
Sequence of PI3K (P27986 whole entry partner): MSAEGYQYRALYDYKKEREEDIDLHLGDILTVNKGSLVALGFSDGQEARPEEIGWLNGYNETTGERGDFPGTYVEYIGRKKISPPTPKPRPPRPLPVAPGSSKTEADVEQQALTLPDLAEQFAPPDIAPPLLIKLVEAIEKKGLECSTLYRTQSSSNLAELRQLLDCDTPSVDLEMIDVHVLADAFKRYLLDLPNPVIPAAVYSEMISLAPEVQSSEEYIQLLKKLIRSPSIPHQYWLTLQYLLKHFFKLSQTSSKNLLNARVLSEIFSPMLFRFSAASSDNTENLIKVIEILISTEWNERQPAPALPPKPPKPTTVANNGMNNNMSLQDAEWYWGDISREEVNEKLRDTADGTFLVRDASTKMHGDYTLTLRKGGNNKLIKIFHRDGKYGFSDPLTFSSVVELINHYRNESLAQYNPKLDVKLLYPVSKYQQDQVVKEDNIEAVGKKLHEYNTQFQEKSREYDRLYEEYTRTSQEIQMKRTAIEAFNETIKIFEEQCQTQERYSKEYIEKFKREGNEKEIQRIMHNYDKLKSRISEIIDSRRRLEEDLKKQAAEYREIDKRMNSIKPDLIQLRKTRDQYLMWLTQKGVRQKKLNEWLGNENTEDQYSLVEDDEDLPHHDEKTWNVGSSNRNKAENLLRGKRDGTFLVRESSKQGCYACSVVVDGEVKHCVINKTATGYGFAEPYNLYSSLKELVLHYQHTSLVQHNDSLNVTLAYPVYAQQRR

| Compound | IC50 [1] | IC50 [2] | IC50 [3] |
| --- | --- | --- | --- |
| CNC(=NC#N)Nc1ccc(-c2nc(N3CCOCC3)c3cnn(C4CCN(C(=O)c5cccnc5)CC4)c3n2)cc1 [Example 412, 2-cyano-1-methyl-3-(4-{4-morpholin-4-yl-1-[1-(pyridin-3-ylcarbonyl)piperidin-4-yl]-1H-pyrazolo[3,4-d]pyrimidin-6-yl}phenyl)guanidine] | 382 nM | 3000 nM | 6000 nM |
| O=C(Nc1ccc(-c2nc(N3CCOCC3)c3cnn(C4CCN(C(=O)c5cccnc5)CC4)c3n2)cc1)Nc1ccsc1 [Example 414, 1-(4-{4-morpholin-4-yl-1-[1-(pyridin-3-ylcarbonyl)piperidin-4-yl]-1H-pyrazolo[3,4-d]pyrimidin-6-yl}phenyl)-3-(3-thienyl)urea] | 18 nM | 40 nM | 100 nM |
| CNC(=O)Nc1ccc(-c2nc(N3CCOCC3)c3cnn(C4CCN(C(=O)c5cnccc5C)CC4)c3n2)cc1 [Example 419, 1-methyl-3-[4-(1-{1-[(4-methylpyridin-3-yl)carbonyl]piperidin-4-yl}-4-morpholin-4-yl-1H-pyrazolo[3,4-d]pyrimidin-6-yl)phenyl]urea] | 231 nM | 320 nM | 400 nM |
| CNC(=O)Nc1ccc(-c2nc(N3CCOCC3)c3cnn(C4CCN(C(=O)c5ccc(F)nc5)CC4)c3n2)cc1 [Example 421, 1-[4-(1-{1-[(6-fluoropyridin-3-yl)carbonyl]piperidin-4-yl}-4-morpholin-4-yl-1H-pyrazolo[3,4-d]pyrimidin-6-yl)phenyl]-3-methylurea] | 100 nM | 250 nM | 300 nM |
| CNC(=O)Nc1ccc(-c2nc(N3CCOCC3)c3cnn(C4CCN(C(=O)c5cnccn5)CC4)c3n2)cc1 [Example 422, 1-methyl-3-(4-{4-morpholin-4-yl-1-[1-(pyrazin-2-ylcarbonyl)piperidin-4-yl]-1H-pyrazolo[3,4-d]pyrimidin-6-yl}phenyl)urea] | 198 nM | 320 nM | 400 nM |
| CNC(=O)Nc1ccc(-c2nc(N3CCOCC3)c3cnn(C4CCN(Cc5cccc(C)c5)CC4)c3n2)cc1 [Example 430, 1-methyl-3-(4-{1-[1-(3-methylbenzyl)piperidin-4-yl]-4-morpholin-4-yl-1H-pyrazolo[3,4-d]pyrimidin-6-yl}phenyl)urea] | 42 nM | 52 nM | 200 nM |
| CNC(=O)Nc1ccc(-c2nc(N3CCOCC3)c3cnn(C4CCN(Cc5ccc(C)cc5)CC4)c3n2)cc1 [Example 431, 1-methyl-3-(4-{1-[1-(4-methylbenzyl)piperidin-4-yl]-4-morpholin-4-yl-1H-pyrazolo[3,4-d]pyrimidin-6-yl}phenyl)urea] | 25 nM | 27 nM | 100 nM |
| c1ccc(-n2ncc3c(N4CCOCC4)nc(-c4ccc5[nH]ncc5c4)nc32)cc1 [Example 432, 6-(1H-indazol-5-yl)-4-morpholin-4-yl-1-phenyl-1H-pyrazolo[3,4-d]pyrimidine] | 440 nM | 20000 nM | 60000 nM |
| COC(=O)Nc1ccc(-c2nc(N3CCOCC3)c3cnn(C4CCN(C(=O)c5ccccn5)CC4)c3n2)cc1 [Example 441, methyl (4-{4-morpholin-4-yl-1-[1-(pyridin-2-ylcarbonyl)piperidin-4-yl]-1H-pyrazolo[3,4-d]pyrimidin-6-yl}phenyl)carbamate] | 1920 nM | 200 nM | 600 nM |
| COC(=O)Nc1ccc(-c2nc(N3CCOCC3)c3cnn(C4CCN(C(=O)c5ccccc5)CC4)c3n2)cc1 [Example 442, methyl {4-[1-(1-benzoylpiperidin-4-yl)-4-morpholin-4-yl-1H-pyrazolo[3,4-d]pyrimidin-6-yl]phenyl}carbamate] | 1010 nM | 150 nM | 500 nM |
| COC(=O)Nc1ccc(-c2nc(N3CCOCC3)c3cnn(C4CCN(C(=O)c5ccccc5F)CC4)c3n2)cc1 [Example 443, methyl (4-{1-[1-(2-fluorobenzoyl)piperidin-4-yl]-4-morpholin-4-yl-1H-pyrazolo[3,4-d]pyrimidin-6-yl}phenyl)carbamate] | 1140 nM | 250 nM | 500 nM |
| CCNC(=O)Nc1ccc(-c2nc(N3CCOCC3)c3cnn(C4CCN(C(=O)c5cccnc5)CC4)c3n2)c(F)c1 [Example 462, 1-ethyl-3-(3-fluoro-4-{4-morpholin-4-yl-1-[1-(pyridin-3-ylcarbonyl)piperidin-4-yl]-1H-pyrazolo[3,4-d]pyrimidin-6-yl}phenyl)urea] | 1620 nM | 900 nM | 900 nM |
| O=C(NCCF)Nc1ccc(-c2nc(N3CCOCC3)c3cnn(C4CCN(C(=O)c5cccnc5)CC4)c3n2)c(F)c1 [Example 463, 1-(2-fluoroethyl)-3-(3-fluoro-4-{4-morpholin-4-yl-1-[1-(pyridin-3-ylcarbonyl)piperidin-4-yl]-1H-pyrazolo[3,4-d]pyrimidin-6-yl}phenyl)urea] | 1730 nM | 1200 nM | 1200 nM |

Now from value to compound, other results behind:

| IC50 [1] | IC50 [2] | Compound | IC50 [3] |
| --- | --- | --- | --- |
| 357 nM | 370 nM | O=C(Nc1ccc(-c2nc(N3CCOCC3)c3cnn(C4CCN(C(=O)c5cccnc5)CC4)c3n2)cc1)NC1CC1 [Example 415, 1-cyclopropyl-3-(4-{4-morpholin-4-yl-1-[1-(pyridin-3-ylcarbonyl)piperidin-4-yl]-1H-pyrazolo[3,4-d]pyrimidin-6-yl}phenyl)urea] | 700 nM |
| 124 nM | 120 nM | CNC(=O)Nc1ccc(-c2nc(N3CCOCC3)c3cnn(C4CCN(C(=O)c5ccccn5)CC4)c3n2)cc1 [Example 418, 1-methyl-3-(4-{4-morpholin-4-yl-1-[1-(pyridin-2-ylcarbonyl)piperidin-4-yl]-1H-pyrazolo[3,4-d]pyrimidin-6-yl}phenyl)urea] | 200 nM |
| 119 nM | 330 nM | CNC(=O)Nc1ccc(-c2nc(N3CCOCC3)c3cnn(C4CCN(C(=O)c5ccc(C)nc5)CC4)c3n2)cc1 [Example 420, 1-methyl-3-[4-(1-{1-[(6-methylpyridin-3-yl)carbonyl]piperidin-4-yl}-4-morpholin-4-yl-1H-pyrazolo[3,4-d]pyrimidin-6-yl)phenyl]urea] | 300 nM |
| 83 nM | 110 nM | CNC(=O)Nc1ccc(-c2nc(N3CCOCC3)c3cnn(C4CCN(C(=O)c5cccc(C(C)=O)c5)CC4)c3n2)cc1 [Example 423, 1-(4-{1-[1-(3-acetylbenzoyl)piperidin-4-yl]-4-morpholin-4-yl-1H-pyrazolo[3,4-d]pyrimidin-6-yl}phenyl)-3-methylurea] | 200 nM |
| 84 nM | 150 nM | CNC(=O)Nc1ccc(-c2nc(N3CCOCC3)c3cnn(C4CCN(C(=O)c5ccc(Cl)nc5)CC4)c3n2)cc1 [Example 424, 1-[4-(1-{1-[(6-chloropyridin-3-yl)carbonyl]piperidin-4-yl}-4-morpholin-4-yl-1H-pyrazolo[3,4-d]pyrimidin-6-yl)phenyl]-3-methylurea] | 400 nM |
| 51 nM | 40 nM | CNC(=O)Nc1ccc(-c2nc(N3CCOCC3)c3cnn(C4CCN(Cc5ccccc5C)CC4)c3n2)cc1 [Example 429, 1-methyl-3-(4-{1-[1-(2-methylbenzyl)piperidin-4-yl]-4-morpholin-4-yl-1H-pyrazolo[3,4-d]pyrimidin-6-yl}phenyl)urea] | 200 nM |
| 778 nM | 250 nM | COC(=O)Nc1ccc(-c2nc(N3CCOCC3)c3cnn(C4CCN(C(=O)c5ccccc5Cl)CC4)c3n2)cc1 [Example 444, methyl (4-{1-[1-(2-chlorobenzoyl)piperidin-4-yl]-4-morpholin-4-yl-1H-pyrazolo[3,4-d]pyrimidin-6-yl}phenyl)carbamate] | 800 nM |
| 989 nM | 580 nM | COC(=O)Nc1ccc(-c2nc(N3CCOCC3)c3cnn(C4CCN(C(=O)c5ccc(F)cc5)CC4)c3n2)cc1 [Example 445, methyl (4-{1-[1-(4-fluorobenzoyl)piperidin-4-yl]-4-morpholin-4-yl-1H-pyrazolo[3,4-d]pyrimidin-6-yl}phenyl)carbamate] | 1600 nM |
| 888 nM | 350 nM | COC(=O)Nc1ccc(-c2nc(N3CCOCC3)c3cnn(C4CCN(C(=O)c5ccccc5OC)CC4)c3n2)cc1 [Example 446, methyl (4-{1-[1-(2-methoxybenzoyl)piperidin-4-yl]-4-morpholin-4-yl-1H-pyrazolo[3,4-d]pyrimidin-6-yl}phenyl)carbamate] | 900 nM |
| 800 nM | 500 nM | COC(=O)Nc1ccc(-c2nc(N3CCOCC3)c3cnn(C4CCN(C(=O)c5ccc(F)cc5F)CC4)c3n2)cc1 [Example 449, methyl (4-{1-[1-(2,4-difluorobenzoyl)piperidin-4-yl]-4-morpholin-4-yl-1H-pyrazolo[3,4-d]pyrimidin-6-yl}phenyl)carbamate] | 1200 nM |
| 619 nM | 740 nM | COC(=O)Nc1ccc(-c2nc(N3CCOCC3)c3cnn(C4CCN(Cc5ccc(Cl)nc5)CC4)c3n2)cc1 [Example 454, methyl [4-(1-{1-[(6-chloropyridin-3-yl)methyl]piperidin-4-yl}-4-morpholin-4-yl-1H-pyrazolo[3,4-d]pyrimidin-6-yl)phenyl]carbamate] | 2000 nM |
| 3110 nM | 1050 nM | CCNC(=O)Nc1cc(F)c(-c2nc(N3CCOCC3)c3cnn(C4CCN(C(=O)c5cccnc5)CC4)c3n2)cc1F [Example 466, 1-(2,5-difluoro-4-{4-morpholin-4-yl-1-[1-(pyridin-3-ylcarbonyl)piperidin-4-yl]-1H-pyrazolo[3,4-d]pyrimidin-6-yl}phenyl)-3-ethylurea] | 3300 nM |
